Measured values as given in the supplement of paper PMC8024199.
± gives the standard deviation of the averaged measurements.

Experiments:
Assay in all cases: drug sensitivity score (DSS) (DSS score); higher = more sensitive (stronger growth inhibition); extreme values may be limits of the assay
[1] = system: Ba/F3 P210-BCR-ABL1 RUNX1wt/wt control (mouse)
How it was run: (§1)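 Mouse Ba/F3 cells carrying P210-BCR-ABL1, CRISPR/Cas9-edited at runx1 exon 4 or edited-control clones, were screened against a 528-compound library on pre-printed 384-well plates. Each compound ran at five concentrations spanning a 10,000-fold range, with 10,000 cells per well in RPMI with 10% FBS for 72 h at 37 °C and 5% CO2. CellTiter-Glo luminescence was scaled between vehicle and positive-control wells. A drug sensitivity score summarised each dose-response, averaged over two replicates.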

[2] = system: Ba/F3 P210-BCR-ABL1 RUNX1-/- (mouse)
How it was run: as §1

[3] = system: Ba/F3 P210-BCR-ABL1 RUNX1-/mut (mouse)
How it was run: as §1

CC(C)c1c(C(=O)Nc2ccccc2)c(-c2ccccc2)c(-c2ccc(F)cc2)n1CC[C@@H](O)C[C@@H](O)CC(=O)O [Atorvastatin]
drug sensitivity score [1]: 0 | drug sensitivity score [2]: 0.65 ± 0.92 | drug sensitivity score [3]: 0.1 ± 0.14

Cc1cnc(NC(=O)Nc2cc(Br)c(C)cc2OC[C@@H]2CNCCO2)cn1 [Rabusertib]
drug sensitivity score [1]: 0.45 ± 0.49 | drug sensitivity score [2]: 3.25 ± 1.6 | drug sensitivity score [3]: 3.3 ± 0.14

CC1(COc2ccc3c(c2)ncn3-c2ccc3cccc(N4CCC(N)CC4)c3n2)COC1 [Crenolanib]
drug sensitivity score [1]: 6.25 ± 0.49 | drug sensitivity score [2]: 12.8 ± 0.49 | drug sensitivity score [3]: 10.9 ± 1.5

O=C(O)C1(C(=O)O)CCC1.[NH2-].[NH2-].[Pt+2] [Carboplatin]
drug sensitivity score [1]: 3.45 ± 0.21 | drug sensitivity score [2]: 6.65 ± 1.8 | drug sensitivity score [3]: 6.9 ± 1.8

CCCc1cc(C)[nH]c(=O)c1CNC(=O)c1cc(-c2ccnc(N3CCN(C)CC3)c2)cc2c1cnn2C(C)C [GSK343]
drug sensitivity score [1]: 0 | drug sensitivity score [2]: 0.75 ± 0.78 | drug sensitivity score [3]: 1.05 ± 1.5

O=C(O)c1ccc2c(c1)nc(Nc1cccc(Cl)c1)c1ccncc12 [Silmitasertib]
drug sensitivity score [1]: 4.05 ± 0.21 | drug sensitivity score [2]: 6.45 ± 0.071 | drug sensitivity score [3]: 7.25 ± 2

CNC(=O)c1ccc(-c2cnc3ncc(Cc4ccc5ncccc5c4)n3n2)cc1F [Capmatinib]
drug sensitivity score [1]: 0.25 ± 0.35 | drug sensitivity score [2]: 0.2 ± 0.28 | drug sensitivity score [3]: 0

CC(C)C[C@@H](C(=O)N[C@H](C(=O)OC1CCCC1)c1ccccc1)[C@H](O)C(=O)NO [Tosedostat]
drug sensitivity score [1]: 1.85 ± 0.49 | drug sensitivity score [2]: 11.4 ± 1.7 | drug sensitivity score [3]: 11.3 ± 4.3

Cc1cccc(-c2[nH]c(CNc3ccccc3F)nc2-c2ccc3ncnn3c2)n1 [TEW-7197]
drug sensitivity score [1]: 0 | drug sensitivity score [2]: 2.35 ± 3.3 | drug sensitivity score [3]: 0

COc1cccc2c1C(=O)c1c(O)c3c(c(O)c1C2=O)C[C@@](O)(/C(CO)=N/NC(=O)CCCCCN1C(=O)C=CC1=O)C[C@@H]3O[C@H]1C[C@H](N)[C@H](O)[C@H](C)O1 [Aldoxorubicin]
drug sensitivity score [1]: 11.2 ± 0.35 | drug sensitivity score [2]: 20.3 ± 0.71 | drug sensitivity score [3]: 18.1 ± 0.35

Cn1c(Nc2ccc(C(F)(F)F)cc2)nc2cc(Oc3ccnc(-c4ncc(C(F)(F)F)[nH]4)c3)ccc21 [NVP-RAF265]
drug sensitivity score [1]: 0 | drug sensitivity score [2]: 2.5 ± 1.8 | drug sensitivity score [3]: 0

CCOc1cc2ncc(C#N)c(Nc3ccc(OCc4ccccn4)c(Cl)c3)c2cc1NC(=O)/C=C/CN(C)C [Neratinib]
drug sensitivity score [1]: 0 | drug sensitivity score [2]: 2.35 ± 1.5 | drug sensitivity score [3]: 1.5 ± 2.1

CC(C)N(C[C@H]1O[C@@H](n2cnc3c(N)ncnc32)[C@H](O)[C@@H]1O)[C@H]1C[C@@H](CCc2nc3cc(C(C)(C)C)ccc3[nH]2)C1 [Pinometostat]
drug sensitivity score [1]: 0 | drug sensitivity score [2]: 0 | drug sensitivity score [3]: 0

C[C@H](Nc1ncnc2[nH]cnc12)c1cc2ccc(F)cc2nc1-c1ccccn1 [AMG319]
drug sensitivity score [1]: 0 | drug sensitivity score [2]: 0.15 ± 0.21 | drug sensitivity score [3]: 1.1 ± 1.6

CCN(CC)CCNC(=O)c1c(C)[nH]c(/C=C2\C(=O)Nc3ccc(-c4csc(-c5ccccc5)n4)cc32)c1C [Amcasertib]
drug sensitivity score [1]: 0 | drug sensitivity score [2]: 5.95 ± 1.6 | drug sensitivity score [3]: 5.35 ± 7.6

COc1cc2c(Oc3ccc4[nH]c(C)cc4c3F)ncnc2cc1OCCCN1CCCC1 [Cediranib]
drug sensitivity score [1]: 0 | drug sensitivity score [2]: 0 | drug sensitivity score [3]: 0

C[C@H]1Oc2cc(cnc2N)-c2c(nn(C)c2C#N)CN(C)C(=O)c2ccc(F)cc21
drug sensitivity score [1]: 0 | drug sensitivity score [2]: 0.5 ± 0.71 | drug sensitivity score [3]: 2.2 ± 3.1

Cc1cc(-c2nc(-c3ccc(OC(F)(F)F)cc3)no2)nn1Cc1ccnc(N2CCN(C3CC3)CC2)c1 [BAY 87-2243]
drug sensitivity score [1]: 4.9 ± 0.57 | drug sensitivity score [2]: 4.6 ± 2.3 | drug sensitivity score [3]: 3.25 ± 1.5

Cn1ncc(Cl)c1-c1cc(C(=O)N[C@H](CN)Cc2cccc(F)c2)sc1Cl [Afuresertib]
drug sensitivity score [1]: 0 | drug sensitivity score [2]: 1.05 ± 1.1 | drug sensitivity score [3]: 1.6 ± 2.3

COc1cc(Nc2ncc(F)c(Nc3ccc4c(n3)N(COP(=O)(O)O)C(=O)C(C)(C)O4)n2)cc(OC)c1OC [Fostamatinib]
drug sensitivity score [1]: 0.45 ± 0.49 | drug sensitivity score [2]: 1.4 ± 0.14 | drug sensitivity score [3]: 0.45 ± 0.64

Cc1cnc(-c2ccccc2C(C)C)nc1NCc1ccc(-n2ccnn2)cc1 [ML323]
drug sensitivity score [1]: 1.25 ± 0.071 | drug sensitivity score [2]: 4.4 ± 1.6 | drug sensitivity score [3]: 3.35 ± 2.9

C=CCc1cccc(/C=N/NC(=O)CN2CCN(Cc3ccccc3)CC2)c1O [PAC-1]
drug sensitivity score [1]: 0.15 ± 0.21 | drug sensitivity score [2]: 4.95 ± 0.21 | drug sensitivity score [3]: 4.65 ± 0.78

O=C(/C=C\n1cnc(-c2cc(C(F)(F)F)cc(C(F)(F)F)c2)n1)NNc1ccccn1 [Verdinexor]
drug sensitivity score [1]: 9.1 ± 0.42 | drug sensitivity score [2]: 14.4 ± 0.92 | drug sensitivity score [3]: 13.3 ± 0.57

NC[C@@](O)(c1ccc(Cl)cc1)c1ccc(-c2cn[nH]c2)cc1
drug sensitivity score [1]: 1.55 ± 0.78 | drug sensitivity score [2]: 1.25 ± 1.8 | drug sensitivity score [3]: 0.05 ± 0.071

O[C@H]1CC[C@H](Nc2ncc3nc(Nc4c(F)cc(F)cc4F)n([C@H]4CCOC4)c3n2)CC1 [Tanzisertib]
drug sensitivity score [1]: 0 | drug sensitivity score [2]: 1.55 ± 0.78 | drug sensitivity score [3]: 1 ± 1.4

CC(O)c1cc(C(=O)N[C@@H](C)Cn2ccc(-c3ccc(C#N)c(Cl)c3)n2)n[nH]1 (stereo partly drawn) [ODM-201]
drug sensitivity score [1]: 0 | drug sensitivity score [2]: 2.55 ± 0.071 | drug sensitivity score [3]: 2.05 ± 1.9

Cc1cc(C)c(CNC(=O)c2cc(-c3ccc(CN4CCOCC4)cc3)cc3c2cnn3C2CCCC2)c(=O)[nH]1 [EPZ-5687]
drug sensitivity score [1]: 0 | drug sensitivity score [2]: 0.5 ± 0.71 | drug sensitivity score [3]: 0.9 ± 1.3

Nc1cccc2c1C(=O)N(C1CCC(=O)NC1=O)C2=O (stereo not drawn) [Pomalidomide]
drug sensitivity score [1]: 0 | drug sensitivity score [2]: 0 | drug sensitivity score [3]: 0

CCn1c(-c2nonc2N)nc2c(C#CC(C)(C)O)ncc(OC[C@H]3CCCNC3)c21
drug sensitivity score [1]: 0 | drug sensitivity score [2]: 0.75 ± 1.1 | drug sensitivity score [3]: 1.45 ± 2

NS(=O)(=O)OC[C@@H]1C[C@@H](n2ccc3c(N[C@H]4CCc5ccccc54)ncnc32)C[C@@H]1O [Pevonedistat]
drug sensitivity score [1]: 7.65 ± 0.21 | drug sensitivity score [2]: 16.1 ± 2.4 | drug sensitivity score [3]: 15.4 ± 2

COc1c(OCCCN2CCOCC2)ccc2c1N=C(NC(=O)c1cnc(N)nc1)N1CCN=C21 [Copanlisib]
drug sensitivity score [1]: 1.4 ± 0.99 | drug sensitivity score [2]: 8.65 ± 1.5 | drug sensitivity score [3]: 6.1 ± 3.4

NCC(=O)Nc1ccc(-n2nc(C(F)(F)F)cc2-c2ccc3c(ccc4ccccc43)c2)cc1
drug sensitivity score [1]: 0 | drug sensitivity score [2]: 0.6 ± 0.85 | drug sensitivity score [3]: 0

COc1cc2c(Nc3ccc(Cl)c(Cl)c3F)ncnc2cc1OC[C@@H]1C[C@@H]2CN(C)C[C@@H]2C1 [Tesevatinib]
drug sensitivity score [1]: 0 | drug sensitivity score [2]: 0.55 ± 0.49 | drug sensitivity score [3]: 0.9 ± 1.3

NCCNc1ccc(NCCN)c2c1C(=O)c1ccncc1C2=O [Pixantrone]
drug sensitivity score [1]: 0 | drug sensitivity score [2]: 1.95 ± 1.3 | drug sensitivity score [3]: 2.45 ± 1.1

Oc1ccc2c(c1)CC[C@H](c1ccccc1)[C@@H]2c1ccc(OCCN2CCCC2)cc1 [Lasofoxifene]
drug sensitivity score [1]: 0 | drug sensitivity score [2]: 0.15 ± 0.21 | drug sensitivity score [3]: 0.65 ± 0.92

COc1ccc(C[C@H](NC(=O)[C@H](C)NC(=O)CN2CCOCC2)C(=O)N[C@@H](Cc2ccccc2)C(=O)C2(C)CO2)cc1 (stereo in doubt) [ONX-0914]
drug sensitivity score [1]: 17.8 ± 0.28 | drug sensitivity score [2]: 22.05 ± 0.21 | drug sensitivity score [3]: 23.2 ± 2.6

CNc1ncc2cc(-c3cc(NC(=O)NCCC(C)(C)C)c(F)cc3C)c(C)nc2n1
drug sensitivity score [1]: 9.45 ± 0.21 | drug sensitivity score [2]: 22.3 ± 0.28 | drug sensitivity score [3]: 15.6 ± 0.64

Cn1ncnc1[C@H]1c2n[nH]c(=O)c3cc(F)cc(c23)N[C@@H]1c1ccc(F)cc1 [Talazoparib]
drug sensitivity score [1]: 2.7 ± 0.14 | drug sensitivity score [2]: 15 ± 5.5 | drug sensitivity score [3]: 16.2 ± 5

COc1ncc(-c2ccc3nccc(-c4ccnnc4)c3c2)cc1NS(=O)(=O)c1ccc(F)cc1F [Omipalisib]
drug sensitivity score [1]: 7.8 ± 0.28 | drug sensitivity score [2]: 12.3 ± 1.4 | drug sensitivity score [3]: 11.9 ± 3.4

C=CC(=O)Nc1cccc(Nc2nc(Nc3ccc(N4CCN(C(C)=O)CC4)cc3OC)ncc2C(F)(F)F)c1 [Rociletinib]
drug sensitivity score [1]: 4.4 ± 0.42 | drug sensitivity score [2]: 8.6 ± 1.6 | drug sensitivity score [3]: 7.45 ± 0.071

COc1cccc2c1c(O)c(C(=O)N(C)c1ccc(C(F)(F)F)cc1)c(=O)n2C [Tasquinimod]
drug sensitivity score [1]: 0.5 ± 0.71 | drug sensitivity score [2]: 0.75 ± 1.1 | drug sensitivity score [3]: 2.15 ± 3

O=C(Nc1cccc(Nc2ncc(Br)c(NCCc3cnc[nH]3)n2)c1)N1CCCC1 [BX-912]
drug sensitivity score [1]: 1.85 ± 0.071 | drug sensitivity score [2]: 8.9 ± 0.42 | drug sensitivity score [3]: 7.25 ± 1.1

CCn1cc(-c2ccnc3[nH]c(-c4cccc(CN(C)C)c4)cc23)c(-c2ccc(NC(=O)N(C)C)cc2)n1
drug sensitivity score [1]: 0.3 ± 0.28 | drug sensitivity score [2]: 14.6 ± 2.2 | drug sensitivity score [3]: 9.15 ± 1.5

CC[C@@H]1[C@H](F)C(=O)N[C@@H]1COc1nccc2cc(C(N)=O)c(OC)cc12
drug sensitivity score [1]: 0.25 ± 0.35 | drug sensitivity score [2]: 1.3 ± 0.42 | drug sensitivity score [3]: 0.9 ± 1.3

Cc1cc(Nc2cc(N3CCN(C)CC3)nc(Sc3ccc(NC(=O)C4CC4)cc3)n2)n[nH]1 [Tozasertib]
drug sensitivity score [1]: 7.95 ± 0.071 | drug sensitivity score [2]: 17.7 ± 0.14 | drug sensitivity score [3]: 12.3 ± 0.85

COc1cc2c(cc1OC(C)C)[C@H](c1ccc(Cl)cc1)N(c1ccc(N(C)C[C@H]3CC[C@H](N4CCN(C)C(=O)C4)CC3)cc1)C(=O)C2 [NVP-CGM097]
drug sensitivity score [1]: 6.3 ± 0.28 | drug sensitivity score [2]: 8.7 ± 0.71 | drug sensitivity score [3]: 8.8 ± 3
